In US5972933A, “Method of treating microbial infections” (Ed. Geistlich Sohne AG Fur Chemische Industrie, priority 1998, dated 1999):
In brackets after ≈: the same amount, converted by molar mass. Entries after “also recorded” stand apart in the source; their conditions may differ. Like-named read-outs stand apart in the source and are kept apart here.

What was measured:
Staph. app. = experiment: Two percent taurolidine solution tested against bacteria, Staph. app. (Example 5); format: cell-based; settings: 48 h; 5×10^4 CFU/well; read-out: MIC 48 h
Description: Two percent taurolidine solution was tested against various bacteria at 5×10^4 CFU/well, according to Manual of Clinical Microbiology, 6th edition, P. R. Murray et al., pp. 1334-1335.

bacteria and fungi [1] = experiment: Antimicrobial activity (general statements); format: cell-based
bacteria and fungi [2] = settings: known antimicrobial substances; cited from earlier work
Enterococcus faecalis = experiment: Taurolidine in vitro susceptibility, E. faecalis (Example 4); format: cell-based
From the text: The in vitro susceptibility to taurolidine of a panel of clinical isolates and reference strains of Enterococcus faecium (n=20,7 strains vancomycin resistant) and Enterococcus faecalis (n-53,5 strains vancomycin resistant) has been examined. […] In all cases, the Minimum Bacteriocidal Concentration (MBC) of taurolidine was within 2 dilutions of the corresponding value for MIC confirming a bactericidal mode of action. In vitro resistance to taurolidine was not observed.

## O=S1(=O)CCN(CN2CCS(=O)(=O)NC2)CN1 [Taurolidine]
Staph. app.
  MIC: 250 µg/mL (≈ 879 µM)
Bacteria and fungi [1]
  rate of bacterial killing: kills bacteria slowly
  resistance development: Resistance has not been observed either in vivo or in vitro; also recorded: no resistance development by microbes has been observed
Bacteria and fungi [1]; in vitro, including multi-resistant strains, VRE and MRSA
  in vitro effectiveness against bacterial strains: effective against all gram negative and gram positive bacterial strains tested to-date
Bacteria and fungi [1]; in vitro, pathogens resistant to methicillin and vancomycin
  in vitro effectiveness against antibiotic-resistant pathogens: fully effective in vitro
Bacteria and fungi [1]; yeast-like and filamentous fungi
  antifungal activity: useful activity against most yeast-like and filamentous fungi
Bacteria and fungi [2]
  antimicrobial spectrum: broad-spectrum activity against aerobic and anaerobic bacteria, mycobacteria and fungi
Enterococcus faecalis; E. faecalis strains, read-out: MIC range
  MIC: 125 to 500 µg/mL (≈ 440 to 1760 µM)
Enterococcus faecalis; E. faecalis, VAN R strains, read-out: MBC, Avg.
  MBC: 500 µg/mL (≈ 1760 µM)
Enterococcus faecalis; E. faecalis, VAN R strains, read-out: MBC, Max.
  MBC: 750 µg/mL (≈ 2640 µM)
Enterococcus faecalis; E. faecalis, VAN R strains, read-out: MBC, Mean
  MBC: 500 µg/mL (≈ 1760 µM)
Enterococcus faecalis; E. faecalis, VAN R strains, read-out: MBC, Median
  MBC: 500 µg/mL (≈ 1760 µM)
Enterococcus faecalis; E. faecalis, VAN R strains, read-out: MBC, Min.
  MBC: 500 µg/mL (≈ 1760 µM)
Enterococcus faecalis; E. faecalis, VAN R strains, read-out: MBC, Mode
  MBC: 500 µg/mL (≈ 1760 µM)
Enterococcus faecalis; E. faecalis, VAN R strains, read-out: MIC, Avg.
  MIC: 213 µg/mL (≈ 749 µM)
Enterococcus faecalis; E. faecalis, VAN R strains, read-out: MIC, Max.
  MIC: 375 µg/mL (≈ 1320 µM)
Enterococcus faecalis; E. faecalis, VAN R strains, read-out: MIC, Mean
  MIC: 213 µg/mL (≈ 749 µM)
Enterococcus faecalis; E. faecalis, VAN R strains, read-out: MIC, Median
  MIC: 250 µg/mL (≈ 879 µM)
Enterococcus faecalis; E. faecalis, VAN R strains, read-out: MIC, Min.
  MIC: 125 µg/mL (≈ 440 µM)
Enterococcus faecalis; E. faecalis, VAN R strains, read-out: MIC, Mode
  MIC: 250 µg/mL (≈ 879 µM)
Enterococcus faecalis; E. faecalis, VAN S strains, read-out: MBC, Avg.
  MBC: 566 µg/mL (≈ 1990 µM)
Enterococcus faecalis; E. faecalis, VAN S strains, read-out: MBC, Max.
  MBC: 750 µg/mL (≈ 2640 µM)
Enterococcus faecalis; E. faecalis, VAN S strains, read-out: MBC, Mean
  MBC: 566 µg/mL (≈ 1990 µM)
Enterococcus faecalis; E. faecalis, VAN S strains, read-out: MBC, Median
  MBC: 500 µg/mL (≈ 1760 µM)
Enterococcus faecalis; E. faecalis, VAN S strains, read-out: MBC, Min.
  MBC: 375 µg/mL (≈ 1320 µM)
Enterococcus faecalis; E. faecalis, VAN S strains, read-out: MBC, Mode
  MBC: 500 µg/mL (≈ 1760 µM)
Enterococcus faecalis; E. faecalis, VAN S strains, read-out: MIC, Avg.
  MIC: 289 µg/mL (≈ 1020 µM)
Enterococcus faecalis; E. faecalis, VAN S strains, read-out: MIC, Max.
  MIC: 500 µg/mL (≈ 1760 µM)
Enterococcus faecalis; E. faecalis, VAN S strains, read-out: MIC, Mean
  MIC: 289 µg/mL (≈ 1020 µM)
Enterococcus faecalis; E. faecalis, VAN S strains, read-out: MIC, Median
  MIC: 250 µg/mL (≈ 879 µM)
Enterococcus faecalis; E. faecalis, VAN S strains, read-out: MIC, Min.
  MIC: 190 µg/mL (≈ 668 µM)
Enterococcus faecalis; E. faecalis, VAN S strains, read-out: MIC, Mode
  MIC: 250 µg/mL (≈ 879 µM)
Enterococcus faecalis; E. faecalis, VAN S, Germany, read-out: MBC, (VAN S) model
  MBC: 750 µg/mL (≈ 2640 µM)
Enterococcus faecalis; E. faecalis, VAN S, Germany, read-out: MIC, (VAN S) model
  MIC: 375 µg/mL (≈ 1320 µM)
Enterococcus faecalis; E. faecalis, VAN S, Switzerland, read-out: MBC, (VAN S) model
  MBC: 500 µg/mL (≈ 1760 µM)
Enterococcus faecalis; E. faecalis, VAN S, Switzerland, read-out: MIC, (VAN S) model
  MIC: 375 µg/mL (≈ 1320 µM)
Enterococcus faecalis; E. faecalis, VAN S, UK, read-out: MBC, (VAN S) model
  MBC: 500 µg/mL (≈ 1760 µM)
Enterococcus faecalis; E. faecalis, VAN S, UK, read-out: MIC, (VAN S) model
  MIC: 250 µg/mL (≈ 879 µM)
Enterococcus faecalis; E. faecalis, all strains, read-out: MBC, Avg.
  MBC: 606 µg/mL (≈ 2130 µM)
Enterococcus faecalis; E. faecalis, all strains, read-out: MBC, Max.
  MBC: 750 µg/mL (≈ 2640 µM)
Enterococcus faecalis; E. faecalis, all strains, read-out: MBC, Mean
  MBC: 606 µg/mL (≈ 2130 µM)
Enterococcus faecalis; E. faecalis, all strains, read-out: MBC, Median
  MBC: 500 µg/mL (≈ 1760 µM)
Enterococcus faecalis; E. faecalis, all strains, read-out: MBC, Min.
  MBC: 375 µg/mL (≈ 1320 µM)
Enterococcus faecalis; E. faecalis, all strains, read-out: MBC, Mode
  MBC: 500 µg/mL (≈ 1760 µM)
Enterococcus faecalis; E. faecalis, all strains, read-out: MIC, Avg.
  MIC: 310 µg/mL (≈ 1090 µM)
Enterococcus faecalis; E. faecalis, all strains, read-out: MIC, Max.
  MIC: 500 µg/mL (≈ 1760 µM)
Enterococcus faecalis; E. faecalis, all strains, read-out: MIC, Mean
  MIC: 310 µg/mL (≈ 1090 µM)
Enterococcus faecalis; E. faecalis, all strains, read-out: MIC, Median
  MIC: 375 µg/mL (≈ 1320 µM)
Enterococcus faecalis; E. faecalis, all strains, read-out: MIC, Min.
  MIC: 125 µg/mL (≈ 440 µM)
Enterococcus faecalis; E. faecalis, all strains, read-out: MIC, Mode
  MIC: 375 µg/mL (≈ 1320 µM)
